{"source": "patent US10392422B2", "about": "“Macrocyclic broad spectrum antibiotics” (priority 2014, dated 2019)", "key": {"MRSA strain COL": {"tested_on": "MRSA strain COL", "assay": "Neutropenic thigh infection model, intravenous infusion", "format": "in vivo, CD-1 mice", "conditions": "Compound 115 (Css 2 or 6.4 ug/mL) co-dosed with imipenem (Css 0.3 μg/mL), infused 23 hours; 24 hours post infection; compared with either single agent; FIG. 3", "procedure": "Jugular vein cannulated CD-1 mice were subjected to induced neutropenia (<100 cells/mm^3) by injecting 150 mg/kg and 100 mg/kg cyclophosphamide at day −5 and day −2 respectively. At day −1, saline was infused at […] for 12 hours using Harvard Apparatus PHD 2000 Infusion pumps. At day 0, mice were infected in the thigh muscle with MRSA strain COL 4×10^5 CFU/50 μL. Four test groups and one vehicle group began dosing at 1 hour post infection:\nGroup 1 was the vehicle control (3% HP-beta-cyclodextrin in PBS)\nGroup 2 was the imipenem (Imp) group dosed at a concentration of 0.21 mg/mL solution, infused at 80 μL/hour for 23 hours, with a target steady-state concentration (Css) of 0.3 μg/mL.\nGroup 3 was the SpsB inhibitor Compound 115 group dosed at a concentration of 2.14 mg/mL solution, infused at 80 μL/hour for 23 hours to achieve a steady state concentration (Css) of 6.4 ug/mL.\nGroup 4 was the SpsB inhibitor Compound 115 group dosed at 0.67 mg/mL solution (Css 2 ug/mL) co-dosed with imipenem at a concentration of 0.21 mg/mL (Css of 0.3 μg/mL) infused at 80 μL/hour for 23 hours. […]\nAt 24 hours post infection, bacterial burden in the thigh muscle was determined by plating the tissue homogenate in series dilutions on blood agar plates. […]"}, "[1]": {"tested_on": "Methicillin Resistant Staphylococcus aureus strain USA 300 (NRS384)", "assay": "MIC, broth micro-dilution technique (CLSI)", "format": "cell-based", "conditions": "for MIC: Staphylococcus aureus, 22 h, read-out: MIC (μg/mL) S. aureus", "how_it_was_run": "(§1)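 Cation-adjusted MHB + 0.002% Tween-80; 10-point 2-fold series starting 64 μg/ml (modified protocol: 4 μg/mL). Final inoculum OD600 0.0005; 35° C, 22 h. MIC per CLSI M07-A8 broth microdilution.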"}, "[2]": {"tested_on": "Escherichia coli MC4100 harboring the IMP4213", "assay": "MIC, broth micro-dilution technique (CLSI)", "format": "cell-based", "conditions": "35° C., 22 hours; for MIC: Escherichia coli, 22 h", "how_it_was_run": "as §1"}, "MRSA COL (NRS100)": {"tested_on": "MRSA COL (NRS100)", "assay": "MIC, broth micro-dilution technique (CLSI)", "format": "cell-based, Staphylococcus aureus", "conditions": "for MIC: Staphylococcus aureus, 22 h, read-out: MIC (μg/mL) (COL)", "how_it_was_run": "as §1"}, "[3]": {"conditions": "read-out: MIC (μg/mL) E. coli, Table 1 protocol: serial 2-fold dilutions starting from 64 μg/ml"}, "[4]": {"conditions": "Table 2 modified protocol: serial 2-fold dilutions starting from 4 μg/mL, 35° C., 22 hours"}, "[5]": {"conditions": "Table 1 protocol: serial 2-fold dilutions starting from 64 μg/ml, 35° C., 22 hours"}, "[6]": {"conditions": "read-out: MIC (μg/mL) E. coli, Table 2 modified protocol: serial 2-fold dilutions starting from 4 μg/mL"}}, "note": "Read-outs that look alike come from different tables or passages of the source."}
{"smiles": "CCCCCCCCCCNCCC(=O)N[C@@H](CCCCN)C(=O)N(C)[C@@H]1C(=O)N[C@@H](C)C(=O)N[C@H](C(=O)N[C@@H](C)C(C)=O)Cc2ccc(O)c(c2)-c2cc1ccc2OCCN", "note": "[Compound 115]", "values": [{"measurement": "bacterial burden in the thigh muscle", "setting": "MRSA strain COL", "value": "greater reduction in bacterial burden"}, {"measurement": "MIC", "setting": "[1]", "value": 0.63, "unit": "µg/mL"}, {"measurement": "MIC", "setting": "[2]; [3]", "value": 19, "unit": "µg/mL"}, {"measurement": "MIC", "setting": "MRSA COL (NRS100)", "value": 0.13, "unit": "µg/mL"}]}
{"smiles": "C[C@@H]1NC(=O)[C@@H](N(C)C(=O)[C@H](CCCCN)NC(=O)c2ccc(-c3ccc(Cl)cc3)cc2)c2ccc(OCCN)c(c2)-c2cc(ccc2OCCN)C[C@@H](C(=O)N[C@@H](C)C(=O)c2[nH]ncc2[N+](=O)[O-])NC1=O", "note": "[Compound 273]", "values": [{"measurement": "MIC (μg/mL) S. aureus", "setting": "[1]; [4]", "value": 0.75, "unit": "µg/mL"}, {"measurement": "MIC (μg/mL) E. coli", "setting": "[2]; Table 2 modified protocol: serial 2-fold dilutions starting from 4 μg/mL", "value": 4, "unit": "µg/mL"}, {"measurement": "MIC (μg/mL) (COL)", "setting": "MRSA COL (NRS100); [4]", "value": 0.38, "unit": "µg/mL"}]}
{"smiles": "C[C@H](NC(=O)[C@@H]1Cc2ccc(O)c(c2)-c2cc(ccc2O)[C@H](N(C)C(=O)[C@H](CCCCN)NC(=O)c2ccc(-c3ccc(Cl)cc3)cc2)C(=O)N[C@@H](C)C(=O)N1)C(=O)CC(N)=O", "note": "[Compound 189]", "values": [{"measurement": "MIC", "setting": "[1]; [5]", "value": 5.7, "unit": "µg/mL"}, {"measurement": "MIC", "setting": "[2]; [3]", "value": 32, "unit": "µg/mL"}, {"measurement": "MIC", "setting": "MRSA COL (NRS100); [5]", "value": 2, "unit": "µg/mL"}]}
{"smiles": "CC(=O)[C@H](C)NC(=O)[C@@H]1Cc2ccc(O)c(c2)-c2cc(ccc2O)[C@H](N(C)C(=O)[C@H](CCCCN)NS(=O)(=O)c2ccc(-c3ccc(Cl)cc3)cc2)C(=O)N[C@@H](C)C(=O)N1", "note": "[Compound 223]", "values": [{"measurement": "MIC", "setting": "[1]; [5]", "value": 0.71, "unit": "µg/mL"}, {"measurement": "MIC", "setting": "[2]; [3]", "value": 32, "unit": "µg/mL"}, {"measurement": "MIC", "setting": "MRSA COL (NRS100); [5]", "value": 2, "unit": "µg/mL"}]}
{"smiles": "CCCCc1ccc(-c2ccc(C(=O)N[C@@H](CCCN)C(=O)N(C)[C@@H]3C(=O)N[C@@H](C)C(=O)N[C@H](C(=O)NCC(=O)O)Cc4ccc(OCCN)c(c4)-c4cc3ccc4OCCN)cc2)cc1", "note": "[Compound 334]", "values": [{"measurement": "MIC", "setting": "[1]; [4]", "value": 1, "unit": "µg/mL"}, {"measurement": "MIC", "setting": "[2]; [6]", "value": 0.13, "unit": "µg/mL"}, {"measurement": "MIC", "setting": "MRSA COL (NRS100); [4]", "value": 0.38, "unit": "µg/mL"}]}
{"smiles": "C[C@@H]1NC(=O)[C@@H](N(C)C(=O)[C@H](CCCCN)NC(=O)c2ccc(-c3ccccc3Cl)cc2)c2ccc(OCCN)c(c2)-c2cc(ccc2OCCN)C[C@@H](C(=O)O)NC1=O", "note": "[Compound 283]", "values": [{"measurement": "MIC", "setting": "[1]", "value": 4, "unit": "µg/mL"}, {"measurement": "MIC", "setting": "[2]; [6]", "value": 1, "unit": "µg/mL"}, {"measurement": "MIC", "setting": "MRSA COL (NRS100)", "value": 1.5, "unit": "µg/mL"}]}
{"smiles": "C[C@@H]1NC(=O)[C@@H](N(C)C(=O)[C@H](CCCCN)NC(=O)c2ccc(-c3ccc(Cl)cc3)cc2)c2cc(C#N)c(O)c(c2)-c2cc(ccc2O)C[C@@H](C(=O)O)NC1=O", "note": "[Compound 290]", "values": [{"measurement": "MIC", "setting": "[1]", "value": 64, "unit": "µg/mL"}, {"measurement": "MIC", "setting": "[2]; [3]", "value": 32, "unit": "µg/mL"}, {"measurement": "MIC", "setting": "MRSA COL (NRS100)", "value": 32, "unit": "µg/mL"}]}
